From US20070270358A1, “Cosmetic and/or Pharmaceutical Composition for the Treatment of the Rosacea” (priority 2004, published 2007)
Read-outs that look alike come from different tables or passages of the source.

Legend:
human keratinocytes [1] = assay: Dosage of ROS (DCF fluorescence) after UV-induced oxidative stress; format: cell-based; conditions: for anti-radical protection percentage / fluorescence, directly proportional to the quantity of ROS (average value): after 5 minutes exposure to UV
Experimental: The substance to be tested was diluted in a salt solution to the final concentrations required. The dichlorofluorescein acetate (DCF) was diluted apart in a special buffer. The DCF reacts with the free radicals if present giving rise to a fluorescent derivative, and the fluorometry reading gives a quantity related to the presence of this substance in the cells analyzed. A sufficient number of cells (30,000 cells/well) is sown in the wells of a […]. After a pre-incubation period overnight with the different sample concentrations, the culture medium is sucked out of the wells and replaced with 500 μl of DCF solution. The plates are placed in a CO2 thermo regulator at 37° C. to incubate for 15 minutes. At this point the DCF solution is discarded. After a 5 minute period of exposure to UV rays, the oxidative stress is interrupted, and the fluorometry reading taken. The lamp used in the experiments reproduces the solar spectrum with a constant UVA emission field of between 315 and 400 nm. The emission of UVB is appropriately shielded to avoid direct cytotoxic damage to the cell cultures. The plate containing the cells is irradiated at room temperature with an intensity of 1.7 mW/cm^2 of UVA […].
Reading of the fluorometry is carried out at the excitation wave length of 485 nm and emission of 530 nm directly on the plates (Toxicol. Letters 1997-93: 47-54).
(§1) • Control negative (C−): cells not treated • Control positive (C+): cells exposed to UV without protective treatment • Samples: • cells exposed to UV in the presence of protective substances: • Vitamin C 0.1 mg/ml (anti-oxidant of comparison) • SOL.—Solution 20% dimethyl sulfone
The results are given in terms of fluorescence, that are directly proportional to the quantity of ROS
The anti-radical protection percentage offered by the substance is calculated using the following formula: […]

human keratinocytes [2] = format: cell-based
Experimental: A second test, through the determination of the vitality of the cells using the MTT method, enables evaluation of the total damage suffered by the cells (in the absence of and following oxidative stress) and the protective effect produced by the substance tested in different concentrations.
Before and following exposure to UV rays, an MTT test is carried out to evaluate the toxic impact on the cell energetic system (mitochondrions) compared with cells not protected from oxidative stress a cells not exposed to stress. The MTT test is simple, accurate and gives reproducible results. This method, originally developed by Mossman […], is based on a yellow substance in solution. The mitochondrial dehydrogenize of live cells is able to cut the tetrazolium ring causing the formation of insoluble purple coloured salts. The crystals can de dissolved in acidified isopropanol and the purple solution formed can be spectrophotometrically dosed. An increase/decrease in number of the live cells can be evaluated as corresponding to the increase or decrease in the optical absorption due to formazano salts, giving a quantification of the global cytotoxic event.
as §1
Cellular vitality as evaluated in the absence of oxidative stress (UV−) and after 5 minutes of exposure to […]
Absorption values (O.D) at 540 nm (in proportion to the number of cells). Evaluation of cellular vitality in the absence of oxidative stress

SMILES: CS(C)(=O)=O [MSM SOL. 20%, dimethyl sulfone]
- anti-radical protection percentage (human keratinocytes [1]; 0.003 mg/ml): 41.2%
- fluorescence, directly proportional to the quantity of ROS (average value) (human keratinocytes [1]; 0.003 mg/ml): 17820
- anti-radical protection percentage (human keratinocytes [1]; 0.01 mg/ml): 37.5%
- fluorescence, directly proportional to the quantity of ROS (average value) (human keratinocytes [1]; 0.01 mg/ml): 18887
- anti-radical protection percentage (human keratinocytes [1]; 0.03 mg/ml): 34.8%
- fluorescence, directly proportional to the quantity of ROS (average value) (human keratinocytes [1]; 0.03 mg/ml): 19686
- anti-radical protection percentage (human keratinocytes [1]; 0.09 mg/ml): 43.7%
- fluorescence, directly proportional to the quantity of ROS (average value) (human keratinocytes [1]; 0.09 mg/ml): 17117
- anti-radical protection percentage (human keratinocytes [1]; 0.28 mg/ml): 38.3%
- fluorescence, directly proportional to the quantity of ROS (average value) (human keratinocytes [1]; 0.28 mg/ml): 18675
- anti-radical protection percentage (human keratinocytes [1]; 0.83 mg/ml): 44.6%
- fluorescence, directly proportional to the quantity of ROS (average value) (human keratinocytes [1]; 0.83 mg/ml): 16848
- anti-radical protection percentage (human keratinocytes [1]; 2.5 mg/ml): 41.4%
- fluorescence, directly proportional to the quantity of ROS (average value) (human keratinocytes [1]; 2.5 mg/ml): 17782
- antioxidant activity: presence of ROS in keratinocyte cultures subjected to oxidative stress (human keratinocytes [1]; concentration between 0.003 and 2.5 mg/ml): significantly reduces the presence of reactive oxygen species (ROS)
- cellular vitality, absorption value at 540 nm (average value) (human keratinocytes [2]; 0.003 mg/ml, after 5 minutes exposure to UV (UV+)): 3.020 O.D
- cellular vitality, absorption value at 540 nm (average value) (human keratinocytes [2]; 0.01 mg/ml, after 5 minutes exposure to UV (UV+)): 2.977 O.D
- cellular vitality, absorption value at 540 nm (average value) (human keratinocytes [2]; 0.03 mg/ml, after 5 minutes exposure to UV (UV+)): 2.940 O.D
- cellular vitality, absorption value at 540 nm (average value) (human keratinocytes [2]; 0.09 mg/ml, after 5 minutes exposure to UV (UV+)): 2.987 O.D
- cellular vitality, absorption value at 540 nm (average value) (human keratinocytes [2]; 0.28 mg/ml, after 5 minutes exposure to UV (UV+)): 2.832 O.D
- cellular vitality, absorption value at 540 nm (average value) (human keratinocytes [2]; 0.83 mg/ml, after 5 minutes exposure to UV (UV+)): 2.838 O.D
- cellular vitality, absorption value at 540 nm (average value) (human keratinocytes [2]; 2.5 mg/ml, after 5 minutes exposure to UV (UV+)): 2.777 O.D
- cytoprotective activity: cellular vitality following exposure to UV radiation (human keratinocytes [2]; concentration between 0.003 and 2.5 mg/ml, versus non-treated keratinocytes): cellular vitality of treated Keratinocytes is greater compared with non-treated Keratinocytes

SMILES: O=C1O[C@H]([C@@H](O)CO)C(O)=C1O [VIT C, Vitamin C, reference compound]
- fluorescence, directly proportional to the quantity of ROS (average value) (human keratinocytes [1]; 0.1 mg/ml): 20837
- cellular vitality, absorption value at 540 nm (average value) (human keratinocytes [2]; 0.1 mg/ml, after 5 minutes exposure to UV (UV+)): 2.904 O.D
- cellular vitality, absorption value at 540 nm (average value) (human keratinocytes [2]; human, 0.1 mg/ml): 2.977 O.D
